# Earlier results in patent publication US20090042781A1, “Methods for Treating Diabetes” (Novo Nordisk A/S, priority 2004, published 2009).
# Assays:
# [1] = administered by gastric gavage
# [2] = injected into dogs
Compound,serum gastrin level [1],blood glucose level [2],insulin release [2]
CC(C)(Oc1ccc(C2CC2(Cl)Cl)cc1)C(=O)O (stereo not drawn) [ciprofibrate],increase,–,–
Exendin-4,–,lowering of the blood glucose level,stimulate insulin release
